These results are taken from US7402575B2, “Methods of treating inflammation” (priority 2003, dated 2008).

Format in all cases: cell-based, dog
In assay [1] the test system is nitric-oxide guanosine 3′,5′cyclic monophosphate pathway. The experiment in a line: Effect of NOS, guanylyl cyclase and PKG inhibitors on lysozyme's myocardial depressant effect in right ventricular trabecular preparation. As to conditions: for Effect on lysozyme's myocardial depressant effect: muscle incubated with inhibitor about one hour before lysozyme. Here is the method:
(§1) The right ventricular trabecular preparation used in this study has previously been described. Briefly, mongrel dogs (3 to 10 kg) were anesthetized with pentobarbital. The hearts were removed, flushed with 50 ml of Krebs-Henseleit solution (KH), and placed in ice-cold KH bubbled with a mixture of 95% O2 and 5% CO2. Three to four thin trabeculae (<1 mm diameter) were obtained from the right ventricle and were tied at each end with 6-O silk thread. Each thin muscle was suspended in a 5 ml vertical constant temperature bath that contained KH. The muscle was stimulated electrically via punctate platinum bipolar electrodes with rectangular pulses (1 ms duration) at an intensity of 50% above threshold delivered at intervals of 2,000 ms. The trabeculae were stretched to optimal length.
The plasma concentration of lysozyme attained in the inventors' sepsis model is approximately 10^−8M, and the 10^−7M to 10^−9M range was used in the experiments described below. Lysozyme was purified from the spleens of nonseptic dogs as previously described. Measurements were obtained at 5 minute intervals.
In one group of experiments, the non-specific nitric oxide synthase inhibitor N^G-monomethyl-L-arginine (L-LNMMA) was used to determine whether it could inhibit the depressant effect of lysozyme. The muscle was incubated with L-NMMA (10^−3M) for approximately one hour after which lysozyme was instilled into the preparation. As a negative control group, ventricular trabeculae were incubated with D-NMMA after which lysozyme was instilled. With the D-isomer, no inhibition of lysozyme's effect would be expected.
In separate experiments, the respective roles of eNOS, nNOS, and iNOS were evaluated in which the objective was to determine which of the NOS isoforms was responsible for the myocardial depression observed with lysozyme. The relatively specific inhibitors for eNOS (L-NIO.2HCl [L-N^5-(1-[Iminoethyl)-ornithine.2HCl], nNOS (N-ω-Propyl-L-arginine [N^5-[Imino(propylamino)methyl]-L-ornithine], and iNOS (1400W.dihydrochloride [N-(3-aminomethyl)benzyl)acetamidine.2HCl] were compared in respective experiments in which a range of concentrations of either NOS inhibitor was used.
In other experiments, the muscle was incubated ODQ (10^−3M) or the PKG inhibitor (Rp-8-Br-cGMP) for one hour. The effect of lysozyme on isometric tension was compared to trabeculae without the respective inhibitors.
The results are expressed as a percent of baseline isometric tension. Statistical analyses included two-way analysis of variance and Student Newman Keuls' multiple comparison test. The results are reported as mean (±SD).

The subject of assay [2] is right ventricular trabecular preparation. Nature of the assay: Effect of the substance itself on isometric tension in right ventricular trabecular preparation. Here is the method:
Aliquots of the 10-30 KD plasma fraction (0.05 to 1 ml) were then added to a right ventricular (RV) trabecular preparation to test for the presence of FCS activity. The RV preparation has previously been described (6,7). Briefly, mongrel dogs (3 to 10 kg) were anesthetized with pentobarbital, and their hearts were removed. Three to four thin trabeculae (<1 mm diameter) were obtained from the right ventricle and were suspended in a vertical constant temperature bath (5 ml) that contained Krebs Henseleit (KH) solution. The muscle was stimulated electrically at 0.5 Hz. Aliquots of plasma fractions (from 0.05 to 1 ml) were added to respective organ baths at 5 minute intervals. The changes observed in the pre and septic plasma fractions were expressed relative to tensions found at baseline (i.e. prior to the addition of the sample). An increase in the depressant activity in the septic plasma fraction relative to that found in the presepsis sample was indicative of an increase in FCS.
The effect of purified Lzm-S on myocardial depression was then studied in the ventricular trabecular preparation. In initial experiments, the objective was to compare Lzm-S prepared from septic and nonseptic spleens to see if there was any difference between the two preparations. Although no differences were apparent by SDS-PAGE gel, different isoforms of the enzyme could have developed in sepsis thereby increasing its potential to cause myocardial depression. Aliquots of the septic and nonseptic preparations were added (at 5 minute intervals) to respective organ baths, and the changes in isometric tension were then compared between Lzm-S obtained from spleens of septic and nonseptic animals.
The right ventricular (RV) preparation used in this study has also been described (49,6). Briefly, mongrel dogs (3 to 10 kg) were anesthetized with pentobarbital. The hearts were removed, flushed with 50 ml of Krebs-Henseleit solution (KH), and placed in ice-cold KH bubbled with a mixture of 95% O2 and 5% CO2. […]
After baseline tension was determined, either the lectin or placebo was placed into respective organ baths. […]

Another assay concerns the target T1, lysozyme c (Lzm-S) (Canis lupus familiaris, UniProt P81709).
T1 construct: Lzm-S was purified in a manner described by Grobler et al (14); from tissue
T1 sequence (P81709 1-130): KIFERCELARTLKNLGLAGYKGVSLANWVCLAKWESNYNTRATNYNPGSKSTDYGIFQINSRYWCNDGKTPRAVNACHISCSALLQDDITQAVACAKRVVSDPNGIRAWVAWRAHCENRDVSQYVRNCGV
Nature of the assay: Inhibition of Lzm-S's myocardial depressant activity (isometric tension) in right ventricular trabecular preparation. Particulars: for Isometric tension following pre-treatment with sugar: sugar 10^−3M added before Lzm-S; for Inhibition of Lzm-S's depressant effect on isometric tension: inhibitor 10^−3M added before Lzm-S, paced 0.5 Hz. Here is the method:
In subsequent experiments, the objective was to determine whether pretreatment of Lzm-S with the proteolytic enzyme proteinase-K reduced the extent to which myocardial depression developed in the in vitro preparation (7). Proteinase-K (attached to beaded agarose; Sigma Chemical, St Louis, Mo.) was added to the pure Lzm-S preparation. The effects of proteinase-K treated and nontreated Lzm-S on isometric tension were compared between the samples. Since proteinase-K is a non-specific proteolytic enzyme, a specific competitive inhibitor of lysozyme, TAC (chitotriose) was subsequently examined to determine whether it prevented the depression in isometric tension observed in the in vitro preparation (16,17).
In one set of experiments, it was determined whether TAC prevented the reduction in tension observed with Lzm-S. A dose of 10^−3M TAC (based on preliminary experiments) was added to the organ bath before the addition of Lzm-S. Lzm-S was then added to bring the final concentrations to 10^−10M, 10^−9M, 10^−8M, and 10^−7M in sequential steps. In a related set of experiments, the effect of TAC was studied under a similar protocol in which the ventricular trabecular preparation was paced at 1 Hz instead of 0.5 Hz. The objective was to determine whether the higher frequency altered the inhibitory response of TAC. In a third set of experiments, the sequence of adding TAC and Lzm-S was reversed. Lzm-S (10^−7M) was initially added to the preparation, after which TAC at bath concentrations of 10^−6M, 10^−5M, 10^−4M, 10^−3M were sequentially added. The objective was to determine whether TAC could attenuate the effect of Lzm-S on reducing the isometric response after an initial depression in isometric tension had already been attained.
as §1, with “(RV)” for “trabecular”, “also” for “previously”, “described (49,6).” for “described.”, “a” for “a 5 ml”, “bath (5 ml)” for “bath”, “KH (in mM: NaCl, 118; KCl, 4.7; CaCl2 2.5; MgSO4, 1.2; KH2PO4, 1.4; NaHCO3, 25; and dextrose, 11).” for “KH.”
Inhibitory activities of N-acetylglucosamine (NAG), N,N′ diacetylglucosamine (NAG-NAG: N,N′ diacetylchitobiose), and N,N′,N″,N′″ tetraacetylglucosamine (NAG-NAG-NAG-NAG: N,N′,N″,N′″-tetraacetylchitotetraose) were examined (Sigma Corp Canada, Oakville Ontario). These are structurally similar to TAC, but have a different number of NAG units (17). Two somewhat related sugars were also examined to see if there was potential for blocking the activity of lysozyme. These included D-cellotriose and N-aceytllactosamine. D-cellotriose includes three glucose residues linked by beta (1-4) glycosidic linkages, while N acetyllactosamine includes N-acetylglucosamine and galactose residues linked by beta (1-4) glycosidic linkages (12).
After baseline tension was determined, either the sugar or placebo was placed into respective organ baths. The concentration of the sugar used was 10^−3M based on the inventors' previous experiments with TAC 49), while the concentrations of lysozyme were 10^−9, 10^−8, and 10^−7M, respectively. Measurements were obtained at 5 minute intervals. The changes in isometric tension measured from baseline were compared between the treated and placebo baths. […]

For the compound `O=c1c2nc(Br)n(C3OC4COP([O-])(=S)OC4C3O)c2nc2[nH]c(-c3ccccc3)cn12.[Na+]` (single isomer, unassigned) [Rp-8-Br-cGMP, guanosine 3′,5′-cyclic monophosphorothioate, β-phenyl-1, N^2-etheno-8-bromo-Pp-isomer, sodium salt], the “Effect on lysozyme's myocardial depressant effect” value in assay [1] is “blocked”.
Consider `CNC(=N)NCCCC(N)C(=O)O` [D-NMMA], for which the “Effect on lysozyme's myocardial depressant effect” value in assay [1] is “no inhibition”.
`CNC(=N)NCCC[C@H](N)C(=O)O` [L-NMMA, N^G-monomethyl-L-arginine, reference compound]: in assay [1], the “Effect on lysozyme's myocardial depressant effect” value is listed as “markedly attenuated”. Also, in assay [2], the “Effect of the substance by itself on isometric tension” value is given as “no change in isometric tension”.
For the compound `N=C(N)NCCC[C@H](N)C(=O)O` [L-arginine], the “Effect on the inhibition by L-NMMA” value in assay [1] was “able to competively overcome the effect of L-NMMA”.
As to `CC(=O)N[C@H]1C(O)O[C@H](CO)[C@@H](O)[C@@H]1O` (stereo partly shown) [N-acetylglucosamine], the “Isometric tension following pre-treatment with sugar” value at lysozyme c (Lzm-S) (Lzm-S 10^−7M) was 44±2 % of baseline; at lysozyme c (Lzm-S) (Lzm-S 10^−8M), 61±4.5 % of baseline; on lysozyme c (Lzm-S) (Lzm-S 10^−9M) it was 85±2 % of baseline. Also, at lysozyme c (Lzm-S), the “Inhibition of Lzm-S's depressant effect on isometric tension” value (shortened to “Inhibition of Lzm-S's depressant effect”) is recorded as “neither N-acetylglucosamine (NAG), N-acetyllactosamine nor cellotriose had inhibitory properties”.
As for `CC(=O)N[C@H]1C(O)O[C@H](CO)[C@@H](O[C@@H]2O[C@H](CO)[C@H](O)[C@H](O)[C@H]2O)[C@@H]1O` (stereo partly shown) [N-acetyllactosamine], the entries for the “Isometric tension following pre-treatment with sugar” value on lysozyme c (Lzm-S) (Lzm-S 10^−7M), at lysozyme c (Lzm-S) (Lzm-S 10^−8M) and on lysozyme c (Lzm-S) (Lzm-S 10^−9M) were 48±1 % of baseline, 55±1 % of baseline and 60±0 % of baseline, respectively. On lysozyme c (Lzm-S), the “Inhibition of Lzm-S's depressant effect” value is given as “neither N-acetylglucosamine (NAG), N-acetyllactosamine nor cellotriose had inhibitory properties”.
Consider `O=c1onc2cnc3ccccc3n12` [ODQ, 1H-[1,2,4] oxidadiazolo-[4,3-a] quinoxalin-1-one], for which, in assay [1], the “Effect on lysozyme's myocardial depressant effect” value was “blocked”.
In the case of `OCC1OC(OC2C(CO)OC(OC3C(CO)OC(O)C(O)C3O)C(O)C2O)C(O)C(O)C1O` [cellotriose, D-cellotriose], the “Isometric tension following pre-treatment with sugar” value is on record as 58±17 % of baseline at lysozyme c (Lzm-S) (Lzm-S 10^−7M), 79±13 % of baseline at lysozyme c (Lzm-S) (Lzm-S 10^−8M) and 84±9 % of baseline at lysozyme c (Lzm-S) (Lzm-S 10^−9M). In addition, on lysozyme c (Lzm-S), the “Inhibition of Lzm-S's depressant effect” value is given as “neither N-acetylglucosamine (NAG), N-acetyllactosamine nor cellotriose had inhibitory properties”.
As for `CC(=N)NCCC[C@H](N)C(=O)O.Cl.Cl` [eNOS], in assay [1], the “Concentration of the NOS inhibitor at which lysozyme's depressant effect was prevented” value was 10^−8 M and the “Effect on lysozyme's myocardial depressant effect” value is on record as “most potent in the prevention of lysozyme's myocardial depressant effect”.
As to `CC(=O)N[C@H]1[C@H](O[C@H]2[C@H](O)[C@@H](NC(C)=O)C(O)O[C@@H]2CO)O[C@H](CO)[C@@H](O[C@@H]2O[C@H](CO)[C@@H](O[C@@H]3O[C@H](CO)[C@@H](O)[C@H](O)[C@H]3NC(C)=O)[C@H](O)[C@H]2NC(C)=O)[C@@H]1O` (stereo partly shown) [tetraacetylchitotetraose, N,N′,N″,N′″ tetraacetylglucosamine], the figures for the “Inhibition of Lzm-S's depressant effect” value on lysozyme c (Lzm-S) and at lysozyme c (Lzm-S) (listed as N,N′,N″,N′″ tetraacetylchitotetraose) were “no inhibitory effect” and “no inhibitory effect on lysozyme's depressant activity”, respectively.
